# System: carnation flowers
# Experiment: Spraying cut carnations with CPAS solution, then 2 ppm ethylene for 24 h
# Format: in vivo, carnation (Dianthus caryophyllus)
# Procedure: Carnation flowers were harvested at the full bloom stage, when the outer petals deflected at right angles to the stem. The flowers were selected for uniformity in terms of flower diameter and placed in tap water. […] The deionized water was used to avoid salt precipitation due to the existence of calcium in tap water. The treatment solution contained a surfactant, Triton-X 100™ (0.05%). Twenty-four hours after the spraying application, the flowers were treated with 2 ppm ethylene for 24 hours. During treatment and during observation of vase-life, the flowers were kept at 22° C. Each treatment was carried out in three replicates, 3 flowers in each replicate.
# Carnation flowers were harvested at the full bloom stage, when the outer petals deflected at right angles to the stem. The flowers were selected for uniformity in terms of flower diameter and placed in tap water. The flowers were then sprayed with various concentrations of CPAS (sodium salt) ranging from 15 to 60 ppm dissolved in NaHCO3 (pH 8.2, 20 and 40 mM) in tap water. The treatment solution contained a surfactant, Kinetic® (0.05%). Twenty-four hours after the CPAS spraying application, the flowers were treated with 2 ppm ethylene for 24 hours. During treatment and during observation of vase-life, the flowers were kept 22° C. Each treatment was carried out in three replicates, 3 flowers in each replicate.
structure (smiles),measurement,setting,value
"O=C([O-])CCC1=CC1.[Na+] [CPAS, 3-cyclopropyl-1-enyl-propanoic acid salt]",effect on ethylene-induced flower senescence,"15 ppm CPAS in NaHCO3 pH 8.2 (20 and 40 mM), Kinetic 0.05%, tap water",little effect
same,effect on ethylene-induced flower senescence,"40 ppm CPAS in Na2CO3/NaHCO3 buffer pH 9.2 below 60 mM, Triton-X 100 0.05%, deionized water",little effect
same,effect on ethylene-induced flower senescence,"80 and 120 ppm CPAS in Na2CO3/NaHCO3 buffer pH 9.2, 40 and 60 mM, Triton-X 100 0.05%",significant effect
same,"delay of flower senescence, tap water versus DI water",CPAS in NaHCO3 (40 mM) dissolved in tap water compared with DI water,more efficiently
same,effect on ethylene-induced flower senescence,"higher CPAS concentrations (up to 60 ppm) in NaHCO3 pH 8.2 (20 and 40 mM), Kinetic 0.05%, tap water",significantly delayed flower senescence
